{
  "source": "patent US20120255051A1",
  "about": "“HERBICIDE TOLERANT PLANTS” (priority 2009, published 2012)",
  "tested_on": "Brassica plants comprising mutant AHAS alleles",
  "test": "Field trial, pre-planting treatment (0, 10, 20, 30 g a.i./ha), two locations in Canada: ERG, EST1, EST2, PPTOX, VIG1, VIG2, VIG3 scores",
  "assay_type": "in vivo, Brassica napus",
  "conditions": "for establishment (EST2) score, Av / phytotoxicity (PPTOX) score, Av / vigor1 (VIG1) score, Av / vigor2 (VIG2) score, Av: AHAS1 HETO108/AHAS3 HETO104",
  "description": "Tests were set up and conducted to asses the growth and performance of plants comprising AHAS full knock-out alleles, and to further analyze the correlation between the presence of full knockout and missense AHAS genes in Brassica plants and plant growth and herbicide tolerance of the Brassica plants in the field. To this end, the Brassica plants identified in Example 1 and 2 were backcrossed two times with an elite parent line, and subsequently selfed twice to obtain homozygous plants (BC2S2). Plants were grown as row plots in a split plot design with three replicates (main plots=herbicide treatments, subplots=genotypes) at two locations in Canada. Treatment pre-planting was carried out on the soil about two days before sowing with a dose of 0 (treatment A), 10 (treatment B), 20 (treatment C) or 30 (treatment D) g a.i./ha of thiencarbazone methyl. Herbicide tolerance was measured by scoring for different parameters. The parameter emergence (ERG) was scored at the cotyledon stage on a scale 1-9, where 1 means late emergence and 9 means early emergence. Establishment was scored 14 days after sowing (EST1) and 21 days after sowing (EST2). Scores were from 1 to 9, where 1 is the worst establishment (least plants that emerged), and 9 is the best establishment (most plants emerged). Phytotoxicity (PPTOX) was determined after establishment. Plants were evaluated on a scale of 1 to 9, where 1=completely yellowing, 5=50% of plant is yellow and 9=no yellowing. The vigor scores (see above) were determined at 1-2 leaf stage (VIG1), 7 days after VIG1 (VIG2) and 14 days after VIG1 (VIG3). The average values (Av) and standard deviations (SD) of the scores for the different parameters are represented in Table 7a-g.\nFurther, the contribution of the knock-out allele to herbicide tolerance conferred by the missense allele was calculated. First, the scores were corrected for a possible effect of the growth per se, independent of herbicide treatment. To this end, the scores for treatments B, C and D were divided by the scores for treatment A for the same genotype and for the same parameter (corrected herbicide tolerance scores). Next, the effect of the knock-out allele to these corrected herbicide tolerance scores obtained by the missense allele was calculated. Therefore, the corrected herbicide tolerance scores for the missense—knock-out allele combination was divided by the corrected herbicide tolerance scores for the missense allele—wild-type combination. In case the knock-out allele has no effect on herbicide tolerance conferred by the missense allele, this ratio should be 1. In case the knock-out allele positively contributes to the herbicide tolerance conferred by the missense allele, this ratio should be higher than 1. The results for the contribution of the knock-out allele to herbicide tolerance conferred by the missense allele as calculated above are shown in table 8.",
  "key": {"[1]": {"conditions": "AHAS1 HETO108, AHAS3 HETO104, treatment B 10 g a.i./ha pre-planting, Location A"}, "[2]": {"conditions": "AHAS1 HETO108, AHAS3 HETO104, treatment B 10 g a.i./ha pre-planting, Location B"}, "[3]": {"conditions": "AHAS1 HETO108, AHAS3 HETO104, treatment C 20 g a.i./ha pre-planting, Location A"}, "[4]": {"conditions": "AHAS1 HETO108, AHAS3 HETO104, treatment C 20 g a.i./ha pre-planting, Location B"}, "[5]": {"conditions": "AHAS1 HETO108, AHAS3 HETO104, treatment D 30 g a.i./ha pre-planting, Location A"}, "[6]": {"conditions": "AHAS1 HETO108, AHAS3 HETO104, treatment D 30 g a.i./ha pre-planting, Location B"}, "[7]": {"conditions": "AHAS1 HETO108, AHAS3 HETO111, treatment B 10 g a.i./ha pre-planting, Location A"}, "[8]": {"conditions": "AHAS1 HETO108, AHAS3 HETO111, treatment B 10 g a.i./ha pre-planting, Location B"}, "[9]": {"conditions": "AHAS1 HETO108, AHAS3 HETO111, treatment C 20 g a.i./ha pre-planting, Location A"}, "[10]": {"conditions": "AHAS1 HETO108, AHAS3 HETO111, treatment C 20 g a.i./ha pre-planting, Location B"}, "[11]": {"conditions": "AHAS1 HETO108, AHAS3 HETO111, treatment D 30 g a.i./ha pre-planting, Location A"}, "[12]": {"conditions": "AHAS1 HETO108, AHAS3 HETO111, treatment D 30 g a.i./ha pre-planting, Location B"}, "[13]": {"conditions": "AHAS1 HETO108, AHAS3 WT (HETO108+HETO104 series), treatment B 10 g a.i./ha pre-planting, Location A"}, "[14]": {"conditions": "AHAS1 HETO108, AHAS3 WT (HETO108+HETO104 series), treatment B 10 g a.i./ha pre-planting, Location B"}, "[15]": {"conditions": "AHAS1 HETO108, AHAS3 WT (HETO108+HETO104 series), treatment C 20 g a.i./ha pre-planting, Location A"}, "[16]": {"conditions": "AHAS1 HETO108, AHAS3 WT (HETO108+HETO104 series), treatment C 20 g a.i./ha pre-planting, Location B"}, "[17]": {"conditions": "AHAS1 HETO108, AHAS3 WT (HETO108+HETO104 series), treatment D 30 g a.i./ha pre-planting, Location A"}, "[18]": {"conditions": "AHAS1 HETO108, AHAS3 WT (HETO108+HETO104 series), treatment D 30 g a.i./ha pre-planting, Location B"}, "[19]": {"conditions": "AHAS1 HETO108, AHAS3 WT (HETO108+HETO111 series), treatment B 10 g a.i./ha pre-planting, Location A"}, "[20]": {"conditions": "AHAS1 HETO108, AHAS3 WT (HETO108+HETO111 series), treatment B 10 g a.i./ha pre-planting, Location B"}, "[21]": {"conditions": "AHAS1 HETO108, AHAS3 WT (HETO108+HETO111 series), treatment C 20 g a.i./ha pre-planting, Location A"}, "[22]": {"conditions": "AHAS1 HETO108, AHAS3 WT (HETO108+HETO111 series), treatment C 20 g a.i./ha pre-planting, Location B"}, "[23]": {"conditions": "AHAS1 HETO108, AHAS3 WT (HETO108+HETO111 series), treatment D 30 g a.i./ha pre-planting, Location A"}, "[24]": {"conditions": "AHAS1 HETO108, AHAS3 WT (HETO108+HETO111 series), treatment D 30 g a.i./ha pre-planting, Location B"}, "[25]": {"conditions": "10 g a.i./ha pre-planting (B), Location A"}, "[26]": {"conditions": "10 g a.i./ha pre-planting (B), Location B"}, "[27]": {"conditions": "20 g a.i./ha pre-planting (C), Location A"}, "[28]": {"conditions": "20 g a.i./ha pre-planting (C), Location B"}},
  "data": [
    {"compound": "COC(=O)c1csc(C)c1S(=O)(=O)NC(=O)n1nc(OC)n(C)c1=O", "note": "[thiencarbazone-methyl, methyl 4-[(4,5-dihydro-3-methoxy-4-methyl-5-oxo-1H-1,2,4-triazol-1-yl)carbonylsulfamoyl]-5-methylthiophene-3-carboxylate]", "values": [
      {"measurement": "emergence (ERG) score Av", "setting": "[1]", "value": 6.00},
      {"measurement": "establishment (EST1) score Av, 14 days after sowing", "setting": "[1]", "value": 6.33},
      {"measurement": "emergence (ERG) score Av", "setting": "[2]", "value": 4.00},
      {"measurement": "establishment (EST1) score Av, 14 days after sowing", "setting": "[2]", "value": 5.00},
      {"measurement": "emergence (ERG) score Av", "setting": "[3]", "value": 4.00},
      {"measurement": "establishment (EST1) score Av, 14 days after sowing", "setting": "[3]", "value": 4.00},
      {"measurement": "emergence (ERG) score Av", "setting": "[4]", "value": 5.00},
      {"measurement": "establishment (EST1) score Av, 14 days after sowing", "setting": "[4]", "value": 5.00},
      {"measurement": "emergence (ERG) score Av", "setting": "[5]", "value": 5.00},
      {"measurement": "establishment (EST1) score Av, 14 days after sowing", "setting": "[5]", "value": 5.00},
      {"measurement": "emergence (ERG) score Av", "setting": "[6]", "value": 4.67},
      {"measurement": "establishment (EST1) score Av, 14 days after sowing", "setting": "[6]", "value": 5.33},
      {"measurement": "emergence (ERG) score Av", "setting": "[7]", "value": 5.33},
      {"measurement": "establishment (EST1) score Av, 14 days after sowing", "setting": "[7]", "value": 6.00},
      {"measurement": "emergence (ERG) score Av", "setting": "[8]", "value": 4.33},
      {"measurement": "establishment (EST1) score Av, 14 days after sowing", "setting": "[8]", "value": 6.00},
      {"measurement": "emergence (ERG) score Av", "setting": "[9]", "value": 4.67},
      {"measurement": "establishment (EST1) score Av, 14 days after sowing", "setting": "[9]", "value": 5.33},
      {"measurement": "emergence (ERG) score Av", "setting": "[10]", "value": 5.00},
      {"measurement": "establishment (EST1) score Av, 14 days after sowing", "setting": "[10]", "value": 5.67},
      {"measurement": "emergence (ERG) score Av", "setting": "[11]", "value": 5.00},
      {"measurement": "establishment (EST1) score Av, 14 days after sowing", "setting": "[11]", "value": 5.33},
      {"measurement": "emergence (ERG) score Av", "setting": "[12]", "value": 4.33},
      {"measurement": "establishment (EST1) score Av, 14 days after sowing", "setting": "[12]", "value": 3.67},
      {"measurement": "emergence (ERG) score Av", "setting": "[13]", "value": 6.67},
      {"measurement": "establishment (EST1) score Av, 14 days after sowing", "setting": "[13]", "value": 6.67},
      {"measurement": "emergence (ERG) score Av", "setting": "[14]", "value": 4.33},
      {"measurement": "establishment (EST1) score Av, 14 days after sowing", "setting": "[14]", "value": 4.67},
      {"measurement": "emergence (ERG) score Av", "setting": "[15]", "value": 5.00},
      {"measurement": "establishment (EST1) score Av, 14 days after sowing", "setting": "[15]", "value": 5.00},
      {"measurement": "emergence (ERG) score Av", "setting": "[16]", "value": 4.33},
      {"measurement": "establishment (EST1) score Av, 14 days after sowing", "setting": "[16]", "value": 4.67},
      {"measurement": "emergence (ERG) score Av", "setting": "[17]", "value": 4.67},
      {"measurement": "establishment (EST1) score Av, 14 days after sowing", "setting": "[17]", "value": 4.67},
      {"measurement": "emergence (ERG) score Av", "setting": "[18]", "value": 5.00},
      {"measurement": "establishment (EST1) score Av, 14 days after sowing", "setting": "[18]", "value": 5.33},
      {"measurement": "emergence (ERG) score Av", "setting": "[19]", "value": 6.33},
      {"measurement": "establishment (EST1) score Av, 14 days after sowing", "setting": "[19]", "value": 6.33},
      {"measurement": "emergence (ERG) score Av", "setting": "[20]", "value": 4.33},
      {"measurement": "establishment (EST1) score Av, 14 days after sowing", "setting": "[20]", "value": 5.33},
      {"measurement": "emergence (ERG) score Av", "setting": "[21]", "value": 5.33},
      {"measurement": "establishment (EST1) score Av, 14 days after sowing", "setting": "[21]", "value": 6.00},
      {"measurement": "emergence (ERG) score Av", "setting": "[22]", "value": 5.00},
      {"measurement": "establishment (EST1) score Av, 14 days after sowing", "setting": "[22]", "value": 5.67},
      {"measurement": "emergence (ERG) score Av", "setting": "[23]", "value": 5.00},
      {"measurement": "establishment (EST1) score Av, 14 days after sowing", "setting": "[23]", "value": 5.33},
      {"measurement": "emergence (ERG) score Av", "setting": "[24]", "value": 3.33},
      {"measurement": "establishment (EST1) score Av, 14 days after sowing", "setting": "[24]", "value": 3.67},
      {"measurement": "establishment (EST2) score, Av", "setting": "[25]", "value": 6.33},
      {"measurement": "phytotoxicity (PPTOX) score, Av", "setting": "[25]", "value": 6.00},
      {"measurement": "vigor1 (VIG1) score, Av", "setting": "[25]", "value": 6.33},
      {"measurement": "vigor2 (VIG2) score, Av", "setting": "[25]", "value": 7.33},
      {"measurement": "establishment (EST2) score, Av", "setting": "[26]", "value": 5.00},
      {"measurement": "vigor2 (VIG2) score, Av", "setting": "[26]", "value": 5.00},
      {"measurement": "establishment (EST2) score, Av", "setting": "[27]", "value": 4.33},
      {"measurement": "vigor1 (VIG1) score, Av", "setting": "[27]", "value": 5.00},
      {"measurement": "vigor2 (VIG2) score, Av", "setting": "[27]", "value": 6.00},
      {"measurement": "establishment (EST2) score, Av", "setting": "[28]", "value": 5.00},
      {"measurement": "phytotoxicity (PPTOX) score, Av", "setting": "[28]", "value": 6.00},
      {"measurement": "vigor1 (VIG1) score, Av", "setting": "[28]", "value": 5.00}
    ]}
  ]
}
